Experimental data taken from patent publication US10760052B2, “Method of inhibiting tau phosphorylation” (priority 2012, dated 2020).
Where two headings read alike, the source gives them in different places.

Biological target: T1, mu opiate receptor (MOR) (Rattus norvegicus, UniProt P33535)
T1 construct: from tissue; host or cells: striatum (membrane preparation)
Assay type: biochemical
Settings: for Concentration of FLNA-Binding Compound as Agonist 0.1 μM / Concentration of FLNA-Binding Compound as Agonist 1 μM / Concentration of FLNA-Binding Compound as Agonist 1 μM + BFNA: [35S]GTPγS binding to Gαo in striatal membranes; for Concentration of FLNA-Binding Compound as Agonist 0.1 μM: compound 0.1 μM; for Concentration of FLNA-Binding Compound as Agonist 1 μM: compound 1 μM; for Concentration of FLNA-Binding Compound as Agonist 1 μM + BFNA: compound 1 μM plus 1 μM β-funaltrexamine (MOR antagonist)
Method: To assess the mu opiate receptor (MOR) agonist activity of positive compounds from the FLNA screening, compounds were tested in a [^35S]GTPγS binding assay using striatal membranes. […] This assay measures a functional consequence of receptor occupancy at one of the earliest receptor-mediated events. The assay permits for traditional pharmacological parameters of potency, efficacy and antagonist affinity, with the advantage that agonist measures are not subjected to amplification or other modulation that may occur when analyzing parameters further downstream of the receptor.
Thus, striatal tissue was homogenized in 10 volumes of ice cold 25 mM HEPES buffer, pH 7.4, which contained 1 mM EGTA, 100 mM sucrose, 50 μg/ml leupeptin, 0.04 mM PMSF, 2 μg/ml soybean trypsin inhibitor and 0.2% 2-mercaptoethanol. The homogenates were centrifuged at 800×g for 5 minutes and the supernatants were centrifuged at 49,000×g for 20 minutes.
The resultant striatal membrane preparation (200 μg) was admixed and maintained (incubated) at 30° C. for 5 minutes in reaction buffer as above that additionally contained 1 mM MgCl2 and 0.5 nM [^35S]GTPγS (0.1 μCi/assay, PerkinElmer Life and Analytical Sciences) in a total volume of 250 μl and continued for 5 minutes in the absence or presence of 0.1-10 μM of an assayed compound of interest. The reaction was terminated by dilution with 750 μl of ice-cold reaction buffer that contained 20 mM MgCl2 and 1 mM EGTA and immediate centrifugation at 16,000×g for 5 minutes.
Normal rabbit serum (1 μl) was added to 1 ml of lysate and incubated at 25° C. for 30 minutes. Nonspecific immune complexes were removed by incubation with 25 μl of protein A/G-conjugated agarose beads at 25° C. for 30 minutes followed by centrifugation at 5,000×g at 4° C. for 5 minutes. The supernatant was divided and separately incubated at 25° C. for 30 minutes with antibodies raised against Gαo proteins (1:1,000 dilutions).
The immunocomplexes so formed were collected by incubation at 25° C. for 30 minutes with 40 μl of agarose-conjugated protein A/G beads and centrifugation at 5,000×g at 4° C. for 5 minutes. The pellet was washed and suspended in buffer containing 50 mM Tris-HCl, pH 8.0, and 1% NP-40. The radioactivity in the suspension was determined by liquid scintillation spectrometry.

[1] = 0.1 μM compound, striatal membranes, Series C-2
[2] = 1 μM compound + 1 μM β-FNA (selective MOR antagonist), Series C-2
[3] = 1 μM compound, striatal membranes, Series C-2

T1 sequence (P33535 whole entry): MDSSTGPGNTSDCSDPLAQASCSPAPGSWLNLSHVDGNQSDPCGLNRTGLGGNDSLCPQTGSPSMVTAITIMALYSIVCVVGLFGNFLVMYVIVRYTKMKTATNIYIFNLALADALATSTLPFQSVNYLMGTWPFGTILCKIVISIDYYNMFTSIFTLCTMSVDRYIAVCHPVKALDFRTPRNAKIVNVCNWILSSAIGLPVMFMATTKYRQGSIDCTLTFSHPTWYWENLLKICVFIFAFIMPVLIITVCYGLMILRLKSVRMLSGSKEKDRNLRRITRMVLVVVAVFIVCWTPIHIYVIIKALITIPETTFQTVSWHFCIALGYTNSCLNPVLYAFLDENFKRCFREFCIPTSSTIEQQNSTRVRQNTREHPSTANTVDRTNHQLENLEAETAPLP

SMILES	% DAMGO (0.1 μM) [%]	% DAMGO (1 μM) [%]	% DAMGO + BFNA [%]	Concentration of FLNA-Binding Compound as Agonist 0.1 μM [%]	Concentration of FLNA-Binding Compound as Agonist 1 μM [%]	Concentration of FLNA-Binding Compound as Agonist 1 μM + BFNA [%]	[35S]GTPγS binding, FLNA-Binding Compound as Agonist at 0.1 μM [1] [%]	[35S]GTPγS binding, FLNA-Binding Compound as Agonist at 1 μM + BFNA [2] [%]	[35S]GTPγS binding, FLNA-Binding Compound as Agonist at 1 μM [3] [%]	[35S]GTPγS binding, FLNA-Binding Compound as Agonist at 0.1 μM [%]	[35S]GTPγS binding, FLNA-Binding Compound as Agonist at 1 μM [%]	[35S]GTPγS binding, FLNA-Binding Compound as Agonist at 1 μM + BFNA [%]
COC(=O)c1ccc(S(=O)(=O)N2CCC3(CC2)OCCN3S(=O)(=O)c2ccc(C(=O)OC)cc2)cc1 [Compound C0028]	55.6	60.5	472.3	93.9	132.4	78.4						
COc1ccc(C(=O)N2CCOC23CCN(S(=O)(=O)c2ccc(OC)cc2)CC3)cc1 [Compound C0019]	59.1	68.1	80.4	104.4	176.6	52.8						
O=C1CN(Cc2ccccc2)C2(CCN(S(=O)(=O)c3cc(Cl)c(O)c(Cl)c3)CC2)N1 [Compound C0139M]	106.2	102.2	129.8	156.1	206.6	51.0						
Cc1cccc(S(=O)(=O)N2CCC3(CC2)OCCN3S(=O)(=O)c2cccc(C)c2)c1 [Compound C0014]	82.0	59.2	116.1	144.9	153.5	76.3						
CC1CCC(C(C)C)C(OCC(O)CN2CCCCC2C)C1 (stereo not drawn) [Compound A0007]	68.3	96.4	152.5	102.0	221.9	40.4						
CC(=O)c1ccc(S(=O)(=O)N2CCOC23CCN(C)CC3)cc1 [Compound C0093M]	81.3	96.4	127.5				140.0	44.0	211.8			
CC1CCC(C(C)C)C(OCC(O)Cn2cccc2)C1 (stereo not drawn) [Compound A0038]	90.1	85.0	144.8	176.7	234.5	107.0						
CC1CCC(C(C)C)C(OCC(O)CN2CCN(CCN3CCOCC3)CC2)C1 (stereo not drawn) [Compound A0011]	158.2	124.9	177.4	236.3	287.5	47.0						
COc1cccc(S(=O)(=O)N2CCC3(CC2)OCCN3S(=O)(=O)c2cccc(OC)c2)c1 [Compound C0002]	51.4	33.9	6.1	88.4	93.8	3.9						
OC(COc1cccc(F)c1)CN1CCc2ccccc2C1 (stereo not drawn) [Compound A0055]	53.2	78.4	102.4	89.8	195.2	33.5						
CS(=O)(=O)c1ccc(S(=O)(=O)N2CCOC23CCNCC3)cc1 [Compound C0116M]	136.6	122.0	313.4							258.4	302.8	152.0
COc1ccc(S(=O)(=O)N2CCC3(CC2)NCCC(=O)N3)cc1 [Compound C0142M]	97.8	95.2	251.1				143.7	98.7	192.5			
CC(=O)c1ccc(S(=O)(=O)N2CCC3(CC2)NCC(=O)N3Cc2ccccc2)cc1 [Compound C0082M]	113.7	107.8	181.1	228.1	338.4	97.6						
CC1CCC(C(C)C)C(OCC(O)CN2CCSC2)C1 (stereo not drawn) [Compound A0002]	104.1	86.6	24.5	155.6	199.4	6.5						
CN(C)c1cccc(OCC(O)CN2CCc3ccccc3C2)c1 (stereo not drawn) [Compound A0050]	77.0	68.6	109.6	151.0	189.3	81.0						
COc1cccc(OC)c1CC(=O)CC1c2c(cc3c(c2OC)OCO3)CC[N+]1(C)C (stereo not drawn) [Compound B0036]	39.2	52.1	199.7	61.4	120.6	65.1						
CC(=O)c1ccc(C(=O)N2CCC3(CC2)OCCN3C(=O)c2ccc(C(C)=O)cc2)cc1 [Compound C0054]	47.0	54.5	98.9	68.2	127.0	43.5						
O=[N+]([O-])c1ccc(S(=O)(=O)N2CCC3(CC2)NCCS3)cc1 [Compound C0044]	102.8	128.0	356.0				173.7	59.1	280.1			
CCN1CCC2(CC1)OCCN2S(=O)(=O)c1ccc(OC)cc1 [Compound C0089M]	136.3	134.4	237.4				234.5	81.9	295.3			
